The source of these data is patent publication US20240391931A1 (Bristol-Myers Squibb Company, priority 2021, published 2024).

One test concerns the target EGFR (Homo sapiens, UniProt P00533). The experiment in a line: EGFR signaling (pEGFR Tyr1068/total EGFR MSD) in A431 cells. Format: cell-based. Also noted: endogenous in cells; host or cells: A431, N87. Particulars: for EC50: A431 cells, read-out: A431 pEGFR EC50; for Selectivity A431 EC50/BT474 EC50: ratio A431 pEGFR EC50 to BT474 pHER2 EC50; for Selectivity A431 EC50/HEKYVMA EC50: ratio A431 pEGFR EC50 to HEK YVMA pHER2 EC50. Put shortly:
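EC50 was fitted with variable Hill slope from MSD pTyr1068/total EGFR ratios, expressed as % DMSO control. A431 cells were starved overnight, then exposed 1.5 h to eight concentrations from 10 to 0.005 μM in 1% FBS before a 10-min 100 ng/mL EGF pulse.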

Test [1] concerns the target T1, HER2 wildtype (WT) protein (Homo sapiens, UniProt P04626).
T1 construct: BT474 and N87 cell lines which endogenously overexpress the HER2 wildtype (WT) protein; endogenous in cells; host or cells: BT474, N87
The experiment in a line: HER2 signaling (pHER2 Tyr1248/total HER2 MSD) in BT474 cells. Particulars: 1.5 hr compound, 1% FBS. It counts as cell-based. A digest of the protocol: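 BT474, N87 (HER2 WT) and NCI-H1781 (HER2 G776delinsVC) cells were treated for 1.5 h at 37° C in 1% FBS medium with compound at 0.0005–1.1 μM. pHER2 Tyr1248 was measured by MSD on whole-cell lysates and normalized to total HER2 as % DMSO. EC50 came from a variable-slope sigmoidal fit.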

EGFR, sequence (P00533 25-1210): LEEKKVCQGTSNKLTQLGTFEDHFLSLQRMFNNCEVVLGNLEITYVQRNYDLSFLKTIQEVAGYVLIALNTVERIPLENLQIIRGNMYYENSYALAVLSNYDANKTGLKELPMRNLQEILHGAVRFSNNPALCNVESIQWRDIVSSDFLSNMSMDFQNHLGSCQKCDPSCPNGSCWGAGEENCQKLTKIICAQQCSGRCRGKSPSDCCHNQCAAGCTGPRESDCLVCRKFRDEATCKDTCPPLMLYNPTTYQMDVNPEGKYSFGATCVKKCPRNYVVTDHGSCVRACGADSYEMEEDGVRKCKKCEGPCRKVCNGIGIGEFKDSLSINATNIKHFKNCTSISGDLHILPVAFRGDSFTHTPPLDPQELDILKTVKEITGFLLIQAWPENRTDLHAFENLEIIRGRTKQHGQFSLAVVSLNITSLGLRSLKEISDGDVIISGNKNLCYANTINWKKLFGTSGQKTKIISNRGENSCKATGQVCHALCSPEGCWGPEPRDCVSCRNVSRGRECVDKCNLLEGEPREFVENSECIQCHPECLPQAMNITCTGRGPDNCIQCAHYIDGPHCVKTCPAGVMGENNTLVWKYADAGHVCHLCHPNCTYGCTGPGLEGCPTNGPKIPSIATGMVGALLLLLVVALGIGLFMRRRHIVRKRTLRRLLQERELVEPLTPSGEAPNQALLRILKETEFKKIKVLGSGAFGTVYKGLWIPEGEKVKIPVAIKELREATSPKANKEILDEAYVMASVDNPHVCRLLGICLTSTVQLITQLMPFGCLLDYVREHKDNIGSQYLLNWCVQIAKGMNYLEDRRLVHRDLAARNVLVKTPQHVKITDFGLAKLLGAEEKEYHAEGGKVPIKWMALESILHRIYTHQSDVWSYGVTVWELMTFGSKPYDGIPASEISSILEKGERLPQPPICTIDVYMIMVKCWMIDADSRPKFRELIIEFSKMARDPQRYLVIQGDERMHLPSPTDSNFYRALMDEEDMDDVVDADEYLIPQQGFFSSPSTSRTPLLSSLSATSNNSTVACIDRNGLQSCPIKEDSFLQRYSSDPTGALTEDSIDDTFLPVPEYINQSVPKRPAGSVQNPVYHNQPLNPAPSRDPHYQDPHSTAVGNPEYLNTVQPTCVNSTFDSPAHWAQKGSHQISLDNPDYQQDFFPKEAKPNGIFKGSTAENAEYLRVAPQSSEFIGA
T1 sequence (P04626 23-1255): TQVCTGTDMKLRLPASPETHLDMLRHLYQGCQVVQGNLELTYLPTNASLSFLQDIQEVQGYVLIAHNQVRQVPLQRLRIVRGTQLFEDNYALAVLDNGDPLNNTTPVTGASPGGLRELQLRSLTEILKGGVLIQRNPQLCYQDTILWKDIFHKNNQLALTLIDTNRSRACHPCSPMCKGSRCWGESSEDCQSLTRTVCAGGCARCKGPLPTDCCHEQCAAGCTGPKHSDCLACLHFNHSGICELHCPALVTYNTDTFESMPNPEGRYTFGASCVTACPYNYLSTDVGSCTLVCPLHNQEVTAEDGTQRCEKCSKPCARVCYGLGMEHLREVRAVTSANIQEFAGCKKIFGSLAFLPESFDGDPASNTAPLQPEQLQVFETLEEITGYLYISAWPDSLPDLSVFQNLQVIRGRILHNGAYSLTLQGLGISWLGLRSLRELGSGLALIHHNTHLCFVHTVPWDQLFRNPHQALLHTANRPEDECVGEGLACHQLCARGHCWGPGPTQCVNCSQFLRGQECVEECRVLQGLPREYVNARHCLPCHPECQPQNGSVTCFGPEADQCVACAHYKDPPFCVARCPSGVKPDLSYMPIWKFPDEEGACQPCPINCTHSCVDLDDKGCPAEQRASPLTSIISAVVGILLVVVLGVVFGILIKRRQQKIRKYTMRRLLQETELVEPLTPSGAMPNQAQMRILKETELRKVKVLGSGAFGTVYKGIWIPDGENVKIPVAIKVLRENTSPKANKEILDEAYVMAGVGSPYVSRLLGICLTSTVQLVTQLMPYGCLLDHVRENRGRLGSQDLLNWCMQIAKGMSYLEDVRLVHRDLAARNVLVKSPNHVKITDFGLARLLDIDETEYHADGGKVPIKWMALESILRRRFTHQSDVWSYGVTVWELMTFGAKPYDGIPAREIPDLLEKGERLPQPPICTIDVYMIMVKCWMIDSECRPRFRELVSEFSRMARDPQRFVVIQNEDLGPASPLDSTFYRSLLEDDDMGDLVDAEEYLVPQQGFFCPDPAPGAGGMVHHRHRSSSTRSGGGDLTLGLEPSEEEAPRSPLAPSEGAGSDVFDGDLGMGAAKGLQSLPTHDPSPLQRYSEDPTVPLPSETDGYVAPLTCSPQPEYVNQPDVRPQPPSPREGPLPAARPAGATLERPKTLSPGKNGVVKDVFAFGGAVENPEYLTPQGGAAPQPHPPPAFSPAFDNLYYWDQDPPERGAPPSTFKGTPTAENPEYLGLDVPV

A word on the EC50: it is the midpoint of the concentration-response curve. On to `Cc1ccc(Oc2ccc(Nc3ncnc4sc5c(c34)CCN(C(=O)/C=C/CN(CCO)CCO)C5)cc2C)cn1` [Compound 37], for which, on EGFR, the EC50 is more than 10000 nM; the “Selectivity A431 EC50/BT474 EC50” value is reported as “A (A: ≥100)”; the “Selectivity A431 EC50/HEKYVMA EC50” value is “B (B: ≥ 20 and < 100)”. Further, the concentration for a half-maximal effect (EC50) in test [1] is less than 100 nM.

For `Cc1cc(Nc2ncnc3sc4c(c23)CN(C(=O)/C=C/CN(C)C)CC4)ccc1Oc1ccc2ncnn2c1` [Compound 103, (E)-1-(4-((4-([1,2,4]triazolo[1,5-a]pyridin-6-yloxy)-3-methylphenyl)amino)-7,8-dihydropyrido[3′,4′:4,5]thieno[2,3-d]pyrimidin-6(5H)-yl)-4-(dimethylamino)but-2-en-1-one], at EGFR, the EC50 is 100 to 1000 nM; the “Selectivity A431 EC50/BT474 EC50” value was “B (B: ≥ 20 and < 100)”; the “Selectivity A431 EC50/HEKYVMA EC50” value was “B (B: ≥ 20 and < 100)”. In test [1], this compound displayed a 50% effective concentration (EC50) of less than 100 nM.

As for `CN(C/C=C/C(=O)N1CCc2c(sc3ncnc(Nc4ccc(Oc5ccc6ncnn6c5)c(Cl)c4)c23)C1)C(C)(C)C` [Compound 91], on EGFR, the concentration giving a half-maximal response (EC50) was less than 100 nM; the “Selectivity A431 EC50/BT474 EC50” value is “C (C: ≥ 10 and < 20)”; the “Selectivity A431 EC50/HEKYVMA EC50” value was “D (D: ≥ 5 and < 10)”. This compound yielded an EC50 in test [1] of less than 100 nM.
